From ChEMBL document CHEMBL4145667, “Targeting Tumor Associated Carbonic Anhydrases IX and XII: Highly Isozyme Selective Coumarin and Psoralen Inhibitors” (ACS Med Chem Lett, 2018) come the findings set out here.

In general, Ki refers to a measure of affinity in units of concentration, obtained from inhibition or displacement. Higher therefore signals a looser hold on the target.

Test [1] addresses Carbonic anhydrase 1 (Homo sapiens, UniProt P00915). As to the kind of experiment: Binding affinity to human carbonic anhydrase 1 by stopped flow CO2 hydration method.
For test [2], the target named is Carbonic anhydrase 2 (Homo sapiens, UniProt P00918). As to the kind of experiment: Binding affinity to human carbonic anhydrase 2 by stopped flow CO2 hydration method.
The target in test [3] is Carbonic anhydrase 9 (Homo sapiens, UniProt Q16790). Put plainly: Binding affinity to human carbonic anhydrase 9 by stopped flow CO2 hydration method.
Test [4] has as its target Carbonic anhydrase 12 (Homo sapiens, UniProt O43570). As to the kind of experiment: Binding affinity to human carbonic anhydrase 12 by stopped flow CO2 hydration method.

Carbonic anhydrase 1, sequence (P00915 whole entry): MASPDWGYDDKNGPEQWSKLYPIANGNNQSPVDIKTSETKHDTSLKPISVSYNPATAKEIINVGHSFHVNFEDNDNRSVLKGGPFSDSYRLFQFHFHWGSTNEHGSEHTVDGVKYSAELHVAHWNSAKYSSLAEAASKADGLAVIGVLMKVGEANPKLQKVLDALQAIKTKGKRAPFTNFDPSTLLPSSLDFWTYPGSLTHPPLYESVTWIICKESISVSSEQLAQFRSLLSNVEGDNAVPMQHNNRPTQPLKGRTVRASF
Carbonic anhydrase 12, sequence (O43570 whole entry): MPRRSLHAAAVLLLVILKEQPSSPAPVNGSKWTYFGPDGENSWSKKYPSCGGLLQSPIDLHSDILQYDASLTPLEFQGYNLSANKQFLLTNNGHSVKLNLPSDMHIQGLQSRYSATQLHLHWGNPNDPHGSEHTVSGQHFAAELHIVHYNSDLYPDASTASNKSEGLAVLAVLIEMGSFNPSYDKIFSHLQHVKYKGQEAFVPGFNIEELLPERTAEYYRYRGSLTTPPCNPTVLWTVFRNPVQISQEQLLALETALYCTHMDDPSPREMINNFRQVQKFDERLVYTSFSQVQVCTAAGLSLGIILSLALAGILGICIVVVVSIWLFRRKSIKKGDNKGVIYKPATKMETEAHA

Turning to `Cc1c(CC(=O)O)c(=O)oc2cc3occ(-c4ccc(F)cc4)c3cc12`, the Ki in test [1] is > 10 µM; in test [2], > 10 µM; in test [3], 0.0177 µM; in test [4] it was 0.0074 µM.
`Cc1c(CC(=O)O)c(=O)oc2cc3occ(-c4ccccc4)c3cc12`: the Ki in test [1] was > 10 µM; in test [2] it was > 10 µM; in test [3], 0.0175 µM; in test [4], 0.0094 µM.
Regarding `Cc1c(CC(=O)O)c(=O)oc2cc3occ(-c4ccc(Cl)cc4)c3cc12`, the Ki in test [1] was > 10 µM; in test [2], > 10 µM; in test [3] it was 0.0947 µM.
`Cc1c(CC(=O)Nc2ccc(S(N)(=O)=O)cc2)c(=O)oc2cc3occ(-c4ccccc4)c3cc12`: the values for the Ki in test [1], in test [2] and in test [3] were 7.02 µM, 0.0466 µM and 0.0165 µM, respectively.
Taken in the same sequence, the figures for `COC(=O)Cc1c(C)c2ccc(OCC(=O)c3ccc(C)cc3)cc2oc1=O` were > 10 µM, > 10 µM and 0.123 µM.
With `Cc1ccc(-c2coc3cc4oc(=O)c(CC(=O)Nc5ccc(S(N)(=O)=O)cc5)c(C)c4cc23)cc1`, the figures for the Ki in test [1], in test [2] and in test [3] were 7.07 µM, 0.56 µM and 0.0916 µM, respectively.
On the same counts, the results for `Cc1ccc(-c2coc3cc4oc(=O)c(CC(=O)O)c(C)c4cc23)cc1` are > 10 µM, > 10 µM and 0.023 µM.
Taken in the same sequence, the figures for `COC(=O)Cc1c(C)c2ccc(OCC(=O)c3ccccc3)cc2oc1=O` were > 10 µM, > 10 µM and 0.0897 µM.
On the same counts, the results for `Cc1c(CC(=O)Nc2ccc(S(N)(=O)=O)cc2)c(=O)oc2cc3occ(-c4ccc(F)cc4)c3cc12` are 7.15 µM, 0.0795 µM and 0.108 µM.
Consider `COC(=O)Cc1c(C)c2ccc(OCC(=O)c3ccc(Cl)cc3)cc2oc1=O`, for which the inhibition constant (Ki) in test [1] was > 10 µM; in test [2], > 10 µM; in test [3], 0.0236 µM.
Consider `Cc1c(CC(=O)Nc2ccc(S(N)(=O)=O)cc2)c(=O)oc2cc3occ(-c4ccc(Cl)cc4)c3cc12`, for which the Ki in test [1] is 6.83 µM; in test [2] it was 0.0551 µM; in test [3], 0.0178 µM.
On the same counts, the results for `COC(=O)Cc1c(C)c2ccc(OCC(=O)c3ccc(F)cc3)cc2oc1=O` are > 10 µM, > 10 µM and 0.0847 µM.
